Literature values in patent US20050232952A1, “Self emulsifying drug delivery systems for poorly soluble drugs” (priority 2002, published 2005).

Settings: humans

Compound: CC(=O)O[C@H]1C(=O)[C@@]2(C)[C@H]([C@H](OC(=O)c3ccccc3)[C@]3(O)C[C@H](OC(=O)[C@H](O)[C@@H](NC(=O)c4ccccc4)c4ccccc4)C(C)=C1C3(C)C)[C@]1(OC(C)=O)CO[C@@H]1C[C@@H]2O [paclitaxel, Paclitaxel]
- systemic bioavailability after oral paclitaxel administration: less than 6%
